Test results: patent publication US20240139135A1, “[…] TREATMENT OF OPIOID USE DISORDER” (THE TRUSTEES OF INDIANA UNIVERSITY, priority 2019, published 2024)
Entries after “also recorded” stand apart in the source; their conditions may differ.

Columns and labels:
[1] = tested on: patients with opioid use disorder (DSM-5 moderate to severe) using opioids for at least three months; assay: Medical chart review of a fifteen-patient outpatient neurology cohort whose opioids were replaced with low-dose Lyrica (pregabalin); assay type: in vivo, human
Procedure: Summary of Experimental Results: Over the span of several years, the present inventor, who is a practicing neurologist, tested various different drugs at varying doses in an attempt to assist patients in their outpatient general neurological practice with cessation of opioid use. Through extensive experimentation, the physician discovered that 25 mg of Lyrica (pregabalin) T.I.D. successfully replaced opioids in a few of their patients, they subsequently expanded their research to other patients.
The charts for the fifteen (15) patients of this cohort were evaluated to ascertain the date that pregabalin was initiated, and the starting dose; the pregabalin dose as of the last available medical record; concomitant pain/CNS medications and concomitant non-pain/CNS medications; records of opioid use, type of opioid and dose (when available); and the temporal relationship between starting pregabalin and no longer requiring opioids. The medications in patient charts were compared with the accompanying medication list for each patient. As these were medical charts, the review was conducted to the extent that information was available.
Diagnosis of opioid use disorder: As a part of the medical chart review, the investigating physician assessed the fifteen (15) patients against the DSM-5 diagnostic criteria for OUD, defined “ . . . as a problematic pattern of opioid use leading to clinically significant impairment or distress, as manifested by at least two (2) pre-defined symptoms.” These criteria include eleven symptoms or behaviors occurring within a 12-month period. A diagnosis of mild OUD requires the presence of 2-3 symptoms, moderate 4-5 symptoms, and severe 6 or more symptoms. Of the fifteen (15) patients, seven (7) had scores in the moderate range and eight (8) had scores in the severe range.

[2] = tested on: neuropathic pain; settings: doses of up to 150 mg a day; cited from earlier work

In the case of CC(C)C[C@H](CN)CC(=O)O [pregabalin, (S)-(+)-3-aminomethyl-5-methyl-hexanoic acid], the “patients for whom opioids were successfully replaced” value ([1]; 25 mg Lyrica (pregabalin) T.I.D., patients had been using opioids for at least three months, cohort of 15) is reported as 15 patients, the cravings for opioids ([1]; each of the fifteen patients, low-dose pregabalin) is reported as “complete cessation of cravings for opioids” and the “side effects or withdrawal symptoms” value ([1]; fifteen patients, opioids replaced with low-dose pregabalin) is reported as “no reported side effects or withdrawal symptoms; also recorded: none of the fifteen (15) patients experienced side effects or withdrawal symptoms”. For the same compound, the “patients who decreased their opioids temporally related to (after) starting pregabalin” value ([1]; of fifteen patients) was 2 patients, the “patients who stopped or decreased their opioids temporally related to (after) starting pregabalin” value ([1]; of fifteen patients, chart review) was at least 7 patients and the “patients who stopped their opioids temporally related to (after) starting pregabalin” value ([1]; of fifteen patients, one continued tramadol 50 mg Q.I.D. prn) was 5 patients. The “patients who elected to return to opioids for other reasons” value ([1]; of the fifteen-patient cohort, also effectively cured of cravings) was 2 patients, the “remaining patients, none of whom returned to opioids within the observation period” value ([1]; of the fifteen-patient cohort, opioids replaced with low doses of Lyrica (pregabalin)) was 13 patients and the “patients started on pregabalin who stopped or decreased their use of opioids (total)” value ([1]; of the patient charts reviewed (fifteen)) was at least 11 patients. For the same compound, the “patients who stopped their opioids while on pregabalin, relative timing not definitively established” value ([1]; of the remaining eight patients) was 4 patients and the “efficacy for the indicated treatment of neuropathic pain” value [2] was “consistently ineffective”.
